In the NIST ThermoML archive (doi:10.1016/j.jct.2011.02.012):
Numbers after ± are expanded uncertainties.

Experiment: activity coefficient (dimensionless); of the first substance listed, at infinite dilution; xn = mol fraction of the nth substance listed
Settings: Liquid, Chromatography, x1 = 0

Question: Which activity coefficient (298.15 K) does the source give for `C1=CCCCC1` [cyclohexene] + CCn1cc[n+](C)c1.N#C[B-](C#N)(C#N)C#N here?
Answer: 7.25 ± 0.49

Question: And the activity coefficient (308.15 K)?
Answer: 6.92 ± 0.47

Question: What about the activity coefficient (318.15 K) of the same compound?
Answer: 6.67 ± 0.45

Question: And the activity coefficient (328.15 K)?
Answer: 6.44 ± 0.44

Question: What about the activity coefficient (338.15 K) of the same compound?
Answer: 6.17 ± 0.42

Question: What about the activity coefficient (348.15 K) of the same compound?
Answer: 6.01 ± 0.41

Question: What about the activity coefficient (358.15 K) of the same compound?
Answer: 5.81 ± 0.4

Question: What does the source list for `C=CCCCCC` [1-heptene] + CCn1cc[n+](C)c1.N#C[B-](C#N)(C#N)C#N?
Answer: activity coefficient (298.15 K): 22 ± 1.5; activity coefficient (308.15 K): 20.4 ± 1.4; activity coefficient (318.15 K): 19.3 ± 1.3; activity coefficient (328.15 K): 18.3 ± 1.3; activity coefficient (338.15 K): 17.3 ± 1.2; activity coefficient (348.15 K): 16.6 ± 1.1; activity coefficient (358.15 K): 15.7 ± 1.1

Question: What does the source list for `C#CCCCCC` [1-heptyne] + CCn1cc[n+](C)c1.N#C[B-](C#N)(C#N)C#N?
Answer: activity coefficient (298.15 K): 5.74 ± 0.39; activity coefficient (308.15 K): 5.66 ± 0.39; activity coefficient (318.15 K): 5.58 ± 0.38; activity coefficient (328.15 K): 5.51 ± 0.38; activity coefficient (338.15 K): 5.45 ± 0.37; activity coefficient (348.15 K): 5.39 ± 0.37; activity coefficient (358.15 K): 5.33 ± 0.36

Question: With `COC(C)(C)C` [2-methoxy-2-methylpropane] + CCn1cc[n+](C)c1.N#C[B-](C#N)(C#N)C#N as the compound, how does the activity coefficient (298.15 K) read?
Answer: 2.82 ± 0.19

Question: What about the activity coefficient (308.15 K) of the same compound?
Answer: 2.86 ± 0.19

Question: And the activity coefficient (318.15 K)?
Answer: 2.9 ± 0.2

Question: And the activity coefficient (328.15 K)?
Answer: 2.94 ± 0.2

Question: And the activity coefficient (338.15 K)?
Answer: 2.97 ± 0.2

Question: What about the activity coefficient (348.15 K) of the same compound?
Answer: 3.01 ± 0.2

Question: What about the activity coefficient (358.15 K) of the same compound?
Answer: 3.04 ± 0.21

Question: What does the source list for `c1ccccc1` [benzene] + CCn1cc[n+](C)c1.N#C[B-](C#N)(C#N)C#N?
Answer: activity coefficient (298.15 K): 1.13 ± 0.07; activity coefficient (308.15 K): 1.15 ± 0.07; activity coefficient (318.15 K): 1.17 ± 0.07; activity coefficient (328.15 K): 1.18 ± 0.08; activity coefficient (338.15 K): 1.19 ± 0.08; activity coefficient (348.15 K): 1.2 ± 0.08; activity coefficient (358.15 K): 1.21 ± 0.08

Question: For `CCO` [ethanol] + CCn1cc[n+](C)c1.N#C[B-](C#N)(C#N)C#N, which activity coefficient (298.15 K) is on record?
Answer: 1.58 ± 0.1

Question: What about the activity coefficient (308.15 K) of the same compound?
Answer: 1.43 ± 0.09

Question: What about the activity coefficient (318.15 K) of the same compound?
Answer: 1.32 ± 0.09

Question: What about the activity coefficient (328.15 K) of the same compound?
Answer: 1.21 ± 0.08

Question: What about the activity coefficient (338.15 K) of the same compound?
Answer: 1.13 ± 0.07

Question: And the activity coefficient (348.15 K)?
Answer: 1.05 ± 0.07

Question: And the activity coefficient (358.15 K)?
Answer: 0.986 ± 0.062

Question: Which results are given for `CO` [methanol] + CCn1cc[n+](C)c1.N#C[B-](C#N)(C#N)C#N?
Answer: activity coefficient (298.15 K): 1.1 ± 0.07; activity coefficient (308.15 K): 1.02 ± 0.06; activity coefficient (318.15 K): 0.948 ± 0.06; activity coefficient (328.15 K): 0.886 ± 0.056; activity coefficient (338.15 K): 0.835 ± 0.054; activity coefficient (348.15 K): 0.788 ± 0.051; activity coefficient (358.15 K): 0.748 ± 0.049

Question: With `CCCCCCCC` [octane] + CCn1cc[n+](C)c1.N#C[B-](C#N)(C#N)C#N as the compound, how does the activity coefficient (298.15 K) read?
Answer: 83.2 ± 5.7

Question: And the activity coefficient (308.15 K)?
Answer: 73.6 ± 5

Question: And the activity coefficient (318.15 K)?
Answer: 67.4 ± 4.6

Question: What about the activity coefficient (328.15 K) of the same compound?
Answer: 60.2 ± 4.1

Question: And the activity coefficient (338.15 K)?
Answer: 54.8 ± 3.8

Question: And the activity coefficient (348.15 K)?
Answer: 50.2 ± 3.4

Question: What about the activity coefficient (358.15 K) of the same compound?
Answer: 46 ± 3.1

Question: Which activity coefficient (318.15 K) does the source give for `Cc1ccc(C)cc1` [1,4-dimethylbenzene] + CCn1cc[n+](C)c1.N#C[B-](C#N)(C#N)C#N here?
Answer: 2.45 ± 0.17

Question: And the activity coefficient (328.15 K)?
Answer: 2.48 ± 0.17

Question: And the activity coefficient (338.15 K)?
Answer: 2.5 ± 0.17

Question: And the activity coefficient (348.15 K)?
Answer: 2.52 ± 0.17

Question: And the activity coefficient (358.15 K)?
Answer: 2.54 ± 0.17

Question: For `Cc1ccccc1` [toluene] + CCn1cc[n+](C)c1.N#C[B-](C#N)(C#N)C#N, which activity coefficient (298.15 K) is on record?
Answer: 1.65 ± 0.11

Question: What about the activity coefficient (308.15 K) of the same compound?
Answer: 1.67 ± 0.11

Question: And the activity coefficient (318.15 K)?
Answer: 1.69 ± 0.11

Question: What about the activity coefficient (328.15 K) of the same compound?
Answer: 1.71 ± 0.11

Question: And the activity coefficient (338.15 K)?
Answer: 1.73 ± 0.12

Question: What about the activity coefficient (348.15 K) of the same compound?
Answer: 1.75 ± 0.12

Question: What about the activity coefficient (358.15 K) of the same compound?
Answer: 1.76 ± 0.12

Question: Which activity coefficient (298.15 K) does the source give for `CCOCC` [diethyl ether] + CCn1cc[n+](C)c1.N#C[B-](C#N)(C#N)C#N here?
Answer: 2.71 ± 0.18

Question: And the activity coefficient (308.15 K)?
Answer: 2.72 ± 0.19

Question: And the activity coefficient (318.15 K)?
Answer: 2.73 ± 0.19

Question: What about the activity coefficient (328.15 K) of the same compound?
Answer: 2.74 ± 0.19

Question: What about the activity coefficient (338.15 K) of the same compound?
Answer: 2.75 ± 0.19

Question: What about the activity coefficient (348.15 K) of the same compound?
Answer: 2.76 ± 0.19

Question: And the activity coefficient (358.15 K)?
Answer: 2.77 ± 0.19

Question: Which results are given for `C1CCOC1` [tetrahydrofuran] + CCn1cc[n+](C)c1.N#C[B-](C#N)(C#N)C#N?
Answer: activity coefficient (298.15 K): 0.686 ± 0.046; activity coefficient (308.15 K): 0.707 ± 0.047; activity coefficient (318.15 K): 0.726 ± 0.048; activity coefficient (328.15 K): 0.737 ± 0.049; activity coefficient (338.15 K): 0.753 ± 0.05; activity coefficient (348.15 K): 0.775 ± 0.051; activity coefficient (358.15 K): 0.789 ± 0.051

Question: With `C=CCCCC` [hex-1-ene] + CCn1cc[n+](C)c1.N#C[B-](C#N)(C#N)C#N as the compound, how does the activity coefficient (298.15 K) read?
Answer: 14.4 ± 1

Question: And the activity coefficient (308.15 K)?
Answer: 13.5 ± 0.9

Question: What about the activity coefficient (318.15 K) of the same compound?
Answer: 12.9 ± 0.9

Question: What about the activity coefficient (328.15 K) of the same compound?
Answer: 12.2 ± 0.8

Question: And the activity coefficient (338.15 K)?
Answer: 11.6 ± 0.8

Question: What about the activity coefficient (348.15 K) of the same compound?
Answer: 11.2 ± 0.8

Question: What about the activity coefficient (358.15 K) of the same compound?
Answer: 10.6 ± 0.7

Question: Which activity coefficient (308.15 K) does the source give for `CCCC(=O)CC` [3-hexanone] + CCn1cc[n+](C)c1.N#C[B-](C#N)(C#N)C#N here?
Answer: 1.2 ± 0.08

Question: And the activity coefficient (318.15 K)?
Answer: 1.22 ± 0.08

Question: And the activity coefficient (328.15 K)?
Answer: 1.24 ± 0.08

Question: What about the activity coefficient (338.15 K) of the same compound?
Answer: 1.25 ± 0.08

Question: And the activity coefficient (348.15 K)?
Answer: 1.28 ± 0.08

Question: And the activity coefficient (358.15 K)?
Answer: 1.17 ± 0.07

Question: Which results are given for `CCCOCCC` [dipropyl ether] + CCn1cc[n+](C)c1.N#C[B-](C#N)(C#N)C#N?
Answer: activity coefficient (298.15 K): 8.54 ± 0.58; activity coefficient (308.15 K): 8.32 ± 0.57; activity coefficient (318.15 K): 8.07 ± 0.55; activity coefficient (328.15 K): 7.79 ± 0.53; activity coefficient (338.15 K): 7.6 ± 0.5; activity coefficient (348.15 K): 7.43 ± 0.51; activity coefficient (358.15 K): 7.24 ± 0.49

Question: Which activity coefficient (298.15 K) does the source give for `C1CCCC1` [cyclopentane] + CCn1cc[n+](C)c1.N#C[B-](C#N)(C#N)C#N here?
Answer: 10.7 ± 0.7

Question: And the activity coefficient (308.15 K)?
Answer: 9.9 ± 0.7

Question: And the activity coefficient (318.15 K)?
Answer: 9.5 ± 0.7

Question: What about the activity coefficient (328.15 K) of the same compound?
Answer: 8.8 ± 0.6

Question: What about the activity coefficient (338.15 K) of the same compound?
Answer: 8.4 ± 0.6

Question: What about the activity coefficient (348.15 K) of the same compound?
Answer: 8 ± 0.5

Question: And the activity coefficient (358.15 K)?
Answer: 7.6 ± 0.5
